Consider nine substances from patent US7833979B2, “Toxin peptide therapeutic agents” (Amgen Inc., priority 2005, dated 2010).

pIC50: −log10 of the molar value. Entries after “also recorded” stand apart in the source; their conditions may differ. Where no end group is shown, it is not given here.

For data set [1], the target named is Kv1.3 (Homo sapiens, UniProt P22001). Description: Whole cell patch clamp electrophysiology on HEK293 cells stably expressing human Kv1.3. Type of data set: cell-based. Particulars: for selectivity ratio hKv1.1/hKv1.3: ratio of hKv1.1 IC50 to hKv1.3 IC50; for Blockade of human Kv1.3 current (in words): patch clamp electrophysiology. (In patch-clamp work, channel activity is measured electrically.)

For data set [2], the target named is T1, human Kv1.1 (Homo sapiens, UniProt Q09470).
T1 construct: expressed in transfected cells; host or cells: HEK293
The data set is described as follows: Whole cell patch clamp electrophysiology, HEK293 cell expression system, human Kv1.1. Type of data set: cell-based.

Data set [3] concerns thapsigargin-induced IL-2 and IFN-g production in human whole blood. Description: Ex vivo human whole blood assay, thapsigargin-induced secretion of IL-2 and IFN-g. Type of data set: cell-based. Particulars: for Thapsigargin-induced IFN-g production in human whole blood / Thapsigargin-induced IL-2 production in human whole blood: two donors, 48 hours.
The subject of data set [4] is upregulation of CD40L and IL-2R on CD4+ T cells in human whole blood. The data set is described as follows: Ex vivo human whole blood assay, thapsigargin-induced cell surface CD40L and IL-2R on T cells (FACS). Type of data set: cell-based. Particulars: 24 hours.
Data set [5] is described as follows: Intravenous pharmacokinetic study in rats, serum levels by Kv1.3 inhibition bioassay. The format is in vivo, Spraque Dawley rats. How it is done: This dose represented equal molar amounts of these two molecules. The average weight of the rats was about 0.3 kg and two rats were used for each dose & molecule. At various times following IV injection, blood was drawn and about 0.1 ml of serum was collected. Serum samples were stored frozen at −80° C. until analysis.
Assay Plate preparation for electrophysiology. […] Before experiments, each sample was thawed at room temperature and an aliquot (70 to 80 μl) was transferred to a well in a 96-well polypropylene plate. In order to prepare the Assay Plate, several dilutions were made from the pharmacokinetic serum samples to give rise to Test Solutions. Dilutions of serum samples from the pharmacokinetic study were into 10% Phosphate Buffered Saline (PBS, with Ca^2+ and Mg^2+). […] Standard inhibition curves were also prepared in the Assay Plate.
Cell preparation for electrophysiology. CHO cells stably expressing the voltage-activated K^+ channel, Kv1.3 were plated in T-175 tissue culture flasks (at a density of 5×10^6) 2 days before experimentation and allowed to grow to around 95% confluence. Immediately prior to the experiment, the cells were washed with PBS and then detached with a 2 ml mixture (1:1 volume ratio) of trypsin (0.25%) and versene (1:5000) at 37° C. (for 3 minutes). […] The mean K^+ current amplitude was measured between 430 and 440 ms and the data were exported to a Microsoft Excel spreadsheet. The amplitude of the K^+ current in the presence of each concentration of the Test Solution or Standard was expressed as a percentage of the K^+ current in control conditions in the same well.
Standard inhibition curves were generated for each standard in various levels of rat serum and expressed as current percent of control (POC) versus log of nM concentration. […]
Beyond 48 hours, the level of drug falls outside the linear range of the Standard curve and is not calculated. […]

Data set [6] concerns AT-EAE model of multiple sclerosis. Description: Adoptive transfer experimental autoimmune encephalomyelitis (AT-EAE) model of multiple sclerosis. Particulars: for Survival to the end of the study: n=5 rats per group; for peak clinical severity score average: scale 0-6. Type of data set: in vivo, Lewis rats.

Kv1.3, sequence (P22001 whole entry): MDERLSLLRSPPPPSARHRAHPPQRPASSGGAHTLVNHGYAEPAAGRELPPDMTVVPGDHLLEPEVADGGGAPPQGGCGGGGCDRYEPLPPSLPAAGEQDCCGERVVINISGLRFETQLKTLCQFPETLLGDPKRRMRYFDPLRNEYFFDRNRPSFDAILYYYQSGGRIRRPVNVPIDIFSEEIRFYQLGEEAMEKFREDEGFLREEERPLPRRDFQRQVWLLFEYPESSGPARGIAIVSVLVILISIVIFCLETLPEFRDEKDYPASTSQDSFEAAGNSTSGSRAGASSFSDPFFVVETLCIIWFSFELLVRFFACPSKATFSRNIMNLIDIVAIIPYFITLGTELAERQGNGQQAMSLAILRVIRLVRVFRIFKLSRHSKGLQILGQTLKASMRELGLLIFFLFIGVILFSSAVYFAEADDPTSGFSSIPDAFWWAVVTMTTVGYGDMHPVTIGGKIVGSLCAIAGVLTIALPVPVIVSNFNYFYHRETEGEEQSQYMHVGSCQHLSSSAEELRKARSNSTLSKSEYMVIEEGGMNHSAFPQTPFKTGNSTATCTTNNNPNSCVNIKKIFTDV
T1 sequence (Q09470 whole entry): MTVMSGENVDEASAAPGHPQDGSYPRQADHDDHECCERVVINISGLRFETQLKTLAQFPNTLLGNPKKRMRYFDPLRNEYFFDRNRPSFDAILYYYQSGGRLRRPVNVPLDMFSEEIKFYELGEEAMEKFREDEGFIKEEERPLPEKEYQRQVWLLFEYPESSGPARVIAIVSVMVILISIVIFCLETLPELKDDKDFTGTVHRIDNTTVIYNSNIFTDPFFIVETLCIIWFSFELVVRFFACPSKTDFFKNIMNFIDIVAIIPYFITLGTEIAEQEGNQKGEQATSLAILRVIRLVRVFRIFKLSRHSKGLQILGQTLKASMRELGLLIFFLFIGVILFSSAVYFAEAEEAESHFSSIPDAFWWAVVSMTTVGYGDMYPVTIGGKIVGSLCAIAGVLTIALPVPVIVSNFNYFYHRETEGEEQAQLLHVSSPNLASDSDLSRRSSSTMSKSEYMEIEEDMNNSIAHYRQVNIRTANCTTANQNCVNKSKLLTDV

In the case of “Fc-L10-OSK1[E16K,K20D]: OSK1-peptibody with E16K and K20D substitutions; SEQ ID NO: 1045”, in data set [1], the “selectivity ratio hKv1.1/hKv1.3” value was 403.

For “Fc-L10-OSK1[K7S,E16K,K20D]: OSK1-peptibody with K7S, E16K and K20D substitutions; SEQ ID NO: 1047”, the “selectivity ratio hKv1.1/hKv1.3” value in data set [1] was found to be 12. For the same substance, the “Potency and selectivity Kv1.3 versus Kv1.1 (in words)” value in data set [2] is “significant decrease in potency as well as selectivity”.

Consider “Fc-L10-OSK1[K7S]: OSK1-peptibody with lysine to serine substitution at position 7; SEQ ID NO: 1043”, for which the “selectivity ratio hKv1.1/hKv1.3” value in data set [1] is reported as 269. For the same substance, the pIC50 (commonly the IC50 on a negative log10 scale, so that one unit is a factor of ten) in data set [2] (whole cell patch clamp, HEK293 cell expression system, human Kv1.1, read-out: hKv1.1:IC50) was 7.00.

For “Fc-L10-ShK[2-35]: human IgG1 Fc fused via 10 amino acid linker to ShK[2-35]; SEQ ID NO: 81”, the “Blockade of human Kv1.3 current (in words)” value (from here on “Blockade”) in data set [1] is given as “potently blocks human Kv1.3 current”. Also, the “Potency in blocking IL-2 production relative to cyclosporine A (by IC50)” value in data set [3] (human whole blood) is recorded as “more than 200 times”. Besides, in data set [3], the “Thapsigargin-induced IFN-g production in human whole blood” value is on record as “suppressed; also recorded: blocked” and the “Thapsigargin-induced IL-2 production in human whole blood” value is “suppressed; also recorded: potently blocked IL-2 secretion”. Besides, in data set [4], the “Thapsigargin-induced upregulation of CD40L on T cells in human whole blood” value is recorded as “blocked” and the “Thapsigargin-induced upregulation of the IL-2R on T cells in human whole blood” value is “blocked; also recorded: suppressing activation of the IL-2R”.

For “Fc-L-KTX1: peptibody: Fc fused via linker to Kaliotoxin1 (KTX1, SEQ ID NO: 24)”, in data set [1], the “Blockade” value is recorded as “blocked the human Kv1.3 current in a dose-dependent fashion”.

With “PEG-ShK[1-35]: synthetic ShK N-terminally PEGylated with 20 kDa monomethoxy-PEG-aldehyde by reductive alkylation; about 24-kDa”, the pIC50 in data set [1] (blockade of peak outward potassium current, HEK293 cells stably expressing human Kv1.3, read-out: peak IC50) is 9.77. Also, the “terminal half-life (t1/2 b)” value in data set [5] (IV injection 1 mg/kg, estimated from curve) is 6 to 12 h. Moreover, the “Time of significant suppression of Kv1.3 current (<70 POC) by serum” value in data set [5] (single equal molar IV injection, 5% serum Test solutions) is given as “more than 24 hours”. Further, the “Average body weight lost” value is listed as 30 g in data set [6] (1 ug/kg), 18 g in data set [6] (10 μg/kg) and 11 g in data set [6] (100 μg/kg). The Onset of disease in data set [6] (1 μg/kg SC daily days −1 to 3) came to 4 days; in data set [6] (10 μg/kg SC daily days −1 to 3), 4.5 days; in data set [6] (100 μg/kg SC daily days −1 to 3), 4.5 days. The “Survival to the end of the study” value in data set [6] (10 μg/kg) and in data set [6] (100 μg/kg) was “all but one rat survived to the end of the study” throughout. In addition, the “peak clinical severity score average” value in data set [6] (10 μg/kg) and in data set [6] (100 μg/kg) was less than 2 in each case. Besides, the “Disease severity and survival (in words)” value in data set [6] (SC 10 μg/kg daily from day −1 to day 3) is “significantly reduced disease severity and increased survival”.

In the case of “PEG-ShK[2-35]: folded Des-Arg1-ShK N-terminally mono-PEGylated with 20 kDa MeO-PEG-aldehyde by reductive amination ({mPEG 20 kDa}-SCIDTIPKSRCTAFQCKHSMKYRLSFCRKTCGTC; disulfide (positions not given here); ends not checked; also: folded (disulfides not given here))”, the “Blockade” value in data set [1] is reported as “active in blocking human Kv1.3”.

On to dendrotoxin-K, for which, in data set [4], the “Thapsigargin-induced upregulation of CD40L on T cells in human whole blood” value was “no significant activity” and the “Thapsigargin-induced upregulation of the IL-2R on T cells in human whole blood” value is given as “no significant activity”.

“iberiotoxin (QFTDVDCSVSKECWSVCKDLFGVDRGKCMGKKCRCYQ; BKCa peptide inhibitor sequence - IbTx) [reference compound]”: in data set [3], the “Thapsigargin-induced IFN-g production in human whole blood” value is reported as “no significant activity” and the “Thapsigargin-induced IL-2 production in human whole blood” value is “no significant activity”. In data set [4], the “Thapsigargin-induced upregulation of CD40L on T cells in human whole blood” value was “no significant activity” and the “Thapsigargin-induced upregulation of the IL-2R on T cells in human whole blood” value is “no significant activity”.
